Source: patent US20210069213A1, “COMPOSITION AND METHOD OF TREATMENT FOR DRY A.M.D. (AGE RELATED MACULAR DEGENERATION)” (EYE CO PTY LTD, priority 2018, published 2021)
“Also recorded” adds a separate entry of the source. Like-named read-outs stand apart in the source and are kept apart here.

What was measured:
[1] = tested on: New Zealand albino rabbits; assay: Intravitreal toxicology of fludrocortisone acetate in rabbit eyes; type: in vivo; details: based on vitreous volume, man 4 mL vs rabbit 1.5 mL
Excerpt: The eyes were enucleated and examined with light microscopy.
Investigative Ophthalmology & Visual Science, 2006. 47(13): p. 4281-4281 ]. […] Their eyes were enucleated and examined with light microscopy.

[2] = tested on: monkey choroidal endothelial cells (CECs); details: PMA-stimulated CECs; FA compared with TA; cited from earlier work
[3] = tested on: Sprague-Dawley rats exposed to bright continuous light; assay: Light damage (photo-oxidative damage) model of dry AMD, corticosteroid treatment vs vehicle; type: in vivo; details: after photo-oxidative damage; FA compared with TA; listed as FA
Protocol: All experiments conducted were in accordance with the ARVO Statement for the Use of Animals in Ophthalmic and Vision Research. Albino Sprague-Dawley (SD) rats aged from […] were exposed to bright continuous light (BCL) at 1000 lux. The rats were born and reared in dim cyclic light conditions (12 h light:12 h dark) with an ambient light level of approximately 5 lux. Exposure to BCL was conducted on animals aged between post-natal days (P) 90-150. Prior to BCL exposure, rats were dark adapted for a minimum of 15 h then transferred to individual cages designed to allow light to enter unimpeded. There were no areas of shadow in the cages; pupillary dilation was not performed. BCL exposure commenced consistently at 9:00 am, and was achieved using a cold-white fluorescent light source positioned above the cages (18 W, Cool White; TFC), at an intensity of approximately 1000 lux at the cage floor. BCL exposure was maintained over a period of 24 h, after which time the animals were immediately returned to dim cyclic conditions for the post-exposure period.
Age-matched, dim-reared animals served as control samples.
Animals were euthanatized by overdose of barbiturate administered by an intraperitoneal injection (60 mg/kg bodyweight; Valabarb; Virbac Animal Health, Regents Park, NSW, Australia).
Eyes were oriented and embedded in O.C.T. compound (Tissue-Tek, Sakura, Japan) then snap frozen in liquid nitrogen and cryosectioned at […] Retinas for RNA extraction were immediately deposited in RNA stabilizer (RNAlater; Ambion, Austin, Tex.), prechilled on ice, and stored according to the manufacturer's instructions. RNA was then extracted from each sample. The samples were incubated at 4° C. overnight to allow adequate penetration of the preservative, and then stored at […] until required. The samples were processed in batches encompassing the entire time course, to ensure comparability. […]
TUNEL labeling was used to quantify photoreceptor apoptosis in cryosections, during and after BCL, with a protocol published previously. […]

[4] = tested on: New Zealand albino rabbits; details: cited from earlier work; for ERG change in the other groups: intravitreal 2 mg, 1 mg, 400 μg/0.1 ml; for ERG change in the other groups / ERG change: two weeks after injection; for intravitreal (vitreous) haemorrhage: intravitreal 4 mg/0.1 mL; for ERG change: intravitreal 4 mg/0.1 ml
[5] = tested on: subject with bi-lateral GA; assay: Phase Ib study of intravitreal FA in patients with geographic atrophy; type: in vivo, human; details: single subject, 1 mg intravitreal
Protocol: A. Phase Ib, Study of Safety and Tolerability of Intravitreal Fludrocortisone Acetate (FA) and Triamcinolone (TA) in Patients with Geographic Atrophy (GA)
The identical protocol will be followed with TA.
Part 1 involves a single participant to assess safety and tolerability of 1 mg/0.1 mL FA. This participant will be followed for up to 28 days and reviewed by a safety review committee prior to the recruitment of a further 2 participants treated with 1 mg/0.1 mL FA totalling in 3 participants in the first cohort.
Visit 2 (Baseline)—All subjects: Unless specified, all ophthalmic procedures (including imaging) are to be performed on the Study eye only. 1. Verify that all inclusion/exclusion criteria are met, including the determination of eligibility by the PI. 2. Obtain information on any changes in medical health and/or the use of concomitant medications. 3. Collect vital signs pre- and post-dose. Vital signs will be measured within 1 hour prior to dosing for the pre-dose time point. Post-dose vital signs readings will be performed within 30 minutes after dosing. 4. Perform BCVA. 5. Perform LL-BCVA. 6. Perform a complete ophthalmic exam including slit-lamp exam of the cornea, iris, anterior chamber, lens (LOCS III if any opacity on the lens noted) and aqueous reaction (cells and flare), dilated fundus exam of the vitreous and retina and IOP measurement. 7. Perform the IVT injection of fludrocortisone acetate. 8. Monitor the study eye within 15 minutes' post injection. 9. Monitor for adverse events.
FIGS. 2 to 6 show the results of injection of fludrocortisone into one subject according to the Phase lb study.

[6] = tested on: light-damage model of dry AMD; assay: Light-damage model of dry AMD in mice; type: in vivo
[7] = FA delivered in Kenalog vehicle, 7 days later

CC(=O)OCC(=O)[C@@]1(O)CC[C@H]2[C@@H]3CCC4=CC(=O)CC[C@]4(C)[C@@]3(F)[C@@H](O)C[C@@]21C [Fludrocortisone acetate, 9-α-Fiuoro-11 β. 17 α, 21-trihydroxy-4-pregnene-3, 20 dione acetate]
human equivalent dose [1]: 67 mg/eye every 4 weeks | restoring quiescent morphology [2]: superior to TA | prevention of macrophage recruitment (IBA1) [3]: more effective than TA; also recorded: superior | prevention of photoreceptor death / cell death (TUNEL) [3]: more effective than TA; also recorded: superior | retinal function (ERG, a- and b-wave amplitude) [3]: preserves retinal function; also recorded: superior | histological examination of retinal sections (light microscopy) ([4]; 400 μg to 4 mg per eye): no evidence of toxicity or vacuolization except for one eye in the 4mg group | time by which all aggregates disappeared from the vitreous ([4]; 2-mg group): 22 ± 8 days | time by which all aggregates disappeared from the vitreous ([4]; 4-mg group): 33 ± 7 days | IOP ([4]; all groups): normal | ERG change in the other groups [4]: normal ERG | ERG change in the other groups ([4]; listed as FA): no other problems of reductions in ERG | intravitreal (vitreous) haemorrhage [4]: 1 | intravitreal (vitreous) haemorrhage ([4]; listed as FA): Two eyes at 4 mg/0.1 ml experienced intravitreal haemorrhage | ERG change [4]: one eye injected with 4 mg/0.1 ml exhibited decreases in ERG output | ERG change ([4]; listed as FA): reduced ERG | signs of retinal toxicity on slit-lamp examination, indirect ophthalmoscopy, or light microscopy ([4]; rabbit, in vivo): no signs of retinal toxicity | tolerability in animal toxicology studies ([4]; rabbit, in vivo): well-tolerated | inflammation in anterior or posterior segment (slit lamp biomicroscopy, indirect ophthalmoscopy) ([4]; up to 40 days of observations, all treatment groups): did not show any evidence of significant inflammation | external eye exam [5]: all normal | slit lamp biomicroscopy [5]: all normal, apart from a previous scar on the anterior chamber | vitreous haze grading [5]: absent | toxicity ([5]; left eye, day 28): no evidence of toxicity | visual acuity (VA) ([5]; left eye, day 28): improved visual acuity | cell death [6, 7]: significantly less cell death | macrophages that carry the IBA1 marker [6, 7]: significantly fewer macrophages | Electroretinogram A-wave (Photoreceptor function) and B-wave (inner retinal function) ([6]; FA-treated animals): significantly more robust | outer nuclear layer thickness (histology) ([6]; FA-treated animals): much thicker outer nuclear layer
